One series concerns SREBP pathway. Briefly: SREBP luciferase reporter gene system (SRE-luciferase assay). The series is classed as cell-based, human. Conditions: Homo sapiens, Huh-7, 16 h, Huh-7/SRE-luc cells, sterol-deficient medium, 0.01-10 µM. Summed up:
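Readout was SRE-driven luciferase normalised to GFP fluorescence in lysates of stably transfected Huh-7/SRE-luc hepatoma cells. Compounds (0.01, 0.03, 0.1, 0.3, 1.0, 3.0, 10 µM; DMSO control) were applied for 16 h in sterol-depleted medium with 2 µM lovastatin and 10 µM mevalonate; IC50 from variable-slope fit.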
In general terms: A reporter such as luciferase makes a cellular process visible.

Series [1] in a line: Metabolic stability experiment of mouse liver microsomes. In kind it is in vitro ADME. As to the method: PB solution (100 mM), MgCl2 solution (300 mM), NADPH solution (2.04 mM), and mouse liver microsome (SHQY catalog number: M1000, batch number: 2110330) solution (1.00 mg/mL) were prepared respectively. […] Then, 100 µL of mouse liver microsome solution was added to a 96-well sample plate. For the 0 min sample, acetonitrile solution containing the internal standard was first added; then, 2 µL of 100 µM working solution was added; followed by the addition of 98 µL of pre-warmed 2.04 mM NADPH at 37°C. For the 5 min, 15 min, 30 min, 45 min, and 60 min samples, 2 µL of 100 µM working solution was first added; followed by the addition of 98 µL of pre-warmed 2.04 mM NADPH at 37°C to initiate the reaction; upon reaching the respective time points, a solution of acetonitrile containing the internal standard was added to terminate the reaction. For the NCF60 sample, 2 µL of 100 µM working solution was first added; followed by the addition of 98 µL of pre-warmed PB at 37°C to initiate the reaction; upon reaching the respective time points, a solution of acetonitrile containing the internal standard was added to terminate the reaction. During the experiment, all samples were incubated in a 37°C water bath. All samples were shaken on an oscillator at 800 rpm for 10 min, then centrifuged at 3200 g for 20 min. The supernatant was aspirated, diluted with deionized water at the corresponding ratio, and analyzed by LC-MS/MS. The remaining percentage of the compound at each time point was obtained by dividing the peak area ratio of the compound at 5, 15, 30, 45, and 60 min by the peak area ratio at 0 min. The half-life (T1/2) of the compound was then calculated using Excel. Table 2: Mouse liver microsome stability results of compounds from some examples
On the technique in general: Microsomes from liver hold many membrane-bound enzymes, among them those of drug oxidation.

The nature of series [2]: Solubility in fasted-state simulated intestinal fluid (FaSSIF). The series is classed as physicochemical. Particulars: FaSSIF, pH 6.5, fassif, kinetic from dmso stock, FaSSIF pH 6.5, 300 µM sample solution, room temperature. The method in brief: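 Compound from 10.0 mM DMSO stock added to FaSSIF (phosphate/NaCl buffer, pH 6.5) at 300 µM nominal, shaken 1 h at room temperature, 1000 rpm. After centrifugation, supernatant concentration quantified by LC-MS/MS.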

In series [3] the test system is Fatty Acid Synthase (FASN) gene. Briefly: Inhibition of FASN gene expression (qPCR) in Huh-7 cells. The series is classed as cell-based, human. Conditions: Homo sapiens, Huh-7, 16 h, Huh-7 cells, starvation medium, 16 hours, qPCR; class symbols; read-out: FASN IC50. The method in brief:
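IC50 derived by four-parameter fit of FASN expression inhibition versus DMSO, measured by RT-qPCR. Compound exposure lasted 16 h at five 3-fold concentrations from 3000 nM, applied to Huh-7 cells in sterol-depleting medium with 5% LPDS, 2 µM lovastatin and 10 µM mevalonate.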
For orientation: In qPCR the cycle at which signal appears reflects the starting amount.

Among the data in patent publication EP4752152A1, “STEROID COMPOUND, AND PREPARATION METHOD THEREFOR AND USE THEREOF” (Cholesgen (Shanghai) Co.Ltd., priority 2023, dated 2025) are IC50, half-life and solubility values, retold here.

≈ marks a conversion by molar mass, not a printed value.

On to `COc1cccc(C(O)CCC[C@@H](C)[C@H]2CC[C@H]3[C@H]4[C@H](CC[C@]23C)[C@@]2(C)CC[C@H](O)[C@H](O)[C@@H]2CC4(F)F)c1` (stereo partly drawn) [Compound 39, (1R,3aS,3bS,5aR,6R,7S,9aR,9bS,11aR)-4,4-difluoro-1-[(2R)-6-hydroxy-6-(3-methoxyphenyl)hexan-2-yl]-9a,11a-dimethylhexadecahydro-1H-cyclopenta[1,2-a]phenanthrene-6,7-diol], for which the IC50 (usually the concentration that inhibits the measured activity by half) with SREBP pathway was 0.19 µM. Moreover, in series [1], the half-life (commonly the time in which the quantity being followed falls by half) at 1 µM is 1.95 h. The solubility – broadly, the dissolved amount per volume that the medium holds – at 1 h in series [2] was 177 µM (≈ 94.6 µg/mL).
As for `C[C@H](CCCC(O)c1cccc(F)c1)[C@H]1CC[C@H]2[C@H]3[C@H](CC[C@]12C)[C@@]1(C)CC[C@H](O)[C@H](O)[C@@H]1CC3(F)F` (stereo partly drawn) [Compound 44, (1R,3aS,3bS,5aR,6R,7S,9aR,9bS,11aR)-4,4-difluoro-1-[(2R)-6-(3-fluorophenyl)-6-hydroxyhexan-2-yl]-9a,11a-dimethylhexadecahydro-1H-cyclopenta[1,2-a]phenanthrene-6,7-diol], the IC50 in the series with SREBP pathway came out at 0.152 µM. In series [1], this molecule returned a half-life at 1 µM of more than 3.1 h. This molecule gave a solubility at 1 h in series [2] of 225 µM (≈ 118 µg/mL).
Taken in the same sequence, the figures for `C[C@H](CCCC(O)c1c(F)cccc1F)[C@H]1CC[C@H]2C3=C(F)C[C@H]4[C@@H](O)[C@@H](O)CC[C@]4(C)[C@H]3CC[C@]12C` (stereo partly drawn) [Compound 21, (1R,3aR,5aR,6R,7S,9aR,9bR,11aR)-1-[(2R)-6-(2,6-difluorophenyl)-6-hydroxyhexan-2-yl]-4-fluoro-9a,11a-dimethyl-2,3,3a,5,5a,6,7,8,9,9a,9b,10,11,11a-tetradecahydro-1H-cyclopenta[1,2-a]phenanthrene-6,7-diol] were 0.23 µM, 2.69 h and 246 µM (≈ 128 µg/mL).
On to `COc1ccccc1C(O)CCC[C@@H](C)[C@H]1CC[C@H]2C3=C(F)C[C@H]4[C@@H](O)[C@@H](O)CC[C@]4(C)[C@H]3CC[C@]12C` (stereo partly drawn) [Compound 38, (1R,3aR,5aR,6R,7S,9aR,9bR,11aR)-4-fluoro-1-[(2R)-6-hydroxy-6-(2-methoxyphenyl)hexan-2-yl]-9a,11a-dimethyl-2,3,3a,5,5a,6,7,8,9,9a,9b,10,11,11a-tetradecahydro-1H-cyclopenta[1,2-a]phenanthrene-6,7-diol], for which the IC50 in the series on SREBP pathway was 0.11 µM. This molecule also registered a half-life at 1 µM in series [1] of 0.203 h. This molecule came in with a solubility at 1 h in series [2] of 184 µM (≈ 94.8 µg/mL).
Take `C[C@H](CCCC(O)c1cccc(OC(F)(F)F)c1)[C@H]1CC[C@H]2[C@H]3[C@H](CC[C@]12C)[C@@]1(C)CC[C@H](O)[C@H](O)[C@@H]1CC3(F)F` (stereo partly drawn) [Compound 84, (1R,3aS,3bS,5aR,6R,7S,9aR,9bS,11aR)-4,4-difluoro-1-[(2R)-6-hydroxy-6-{3-[(trifluoromethyl)oxy]phenyl}hexan-2-yl]-9a,11a-dimethylhexadecahydro-1H-cyclopenta[1,2-a]phenanthrene-6,7-diol]: the IC50 in the series on SREBP pathway is 0.204 µM; in series [3] it was 200 to 500 nM. The molecule further returned a half-life at 1 µM in series [1] of more than 3.08 h.
On to `C[C@H](CCCC(O)c1ccccc1F)[C@H]1CC[C@H]2[C@H]3[C@H](CC[C@]12C)[C@@]1(C)CC[C@H](O)C(=O)[C@@H]1CC3(F)F` (stereo partly drawn) [Compound 11, (1R,3aS,3bS,5aR,7S,9aR,9bS,11aR)-4,4-difluoro-1-[(2R)-6-(2-fluorophenyl)-6-hydroxyhexan-2-yl]-7-hydroxy-9a,11a-dimethylhexadecahydro-1H-cyclopenta[1,2-a]phenanthren-6-one], for which the IC50 was 0.19 µM with SREBP pathway and 200 to 500 nM in series [3]. The molecule further yielded a half-life at 1 µM in series [1] of 0.819 h.
Taken in the same sequence, the figures for `COc1c(F)cccc1C(O)CCC[C@@H](C)[C@H]1CC[C@H]2[C@@H]3CC[C@H]4[C@@H](O)[C@@H](O)CC[C@]4(C)[C@H]3CC[C@]12C` (stereo partly drawn) [Compound 7, 24-[(3-Fluoro-2-methoxyphenyl)(hydroxy)methyl]-5α-cholane-3β,4β-diol] were 0.07 µM, 200 to 500 nM and 0.624 h.
In the case of `COc1ccc(C(O)CCC[C@@H](C)[C@H]2CC[C@H]3[C@H]4[C@H](CC[C@]23C)[C@@]2(C)CC[C@H](O)[C@H](O)[C@@H]2CC4(F)F)cc1` (stereo partly drawn) [Compound 50, (1R,3aS,3bS,5aR,6R,7S,9aR,9bS,11aR)-4,4-difluoro-1-[(2R)-6-(4-methoxyphenyl)-6-hydroxyhexan-2-yl]-9a,11a-dimethylhexadecahydro-1H-cyclopenta[1,2-a]phenanthrene-6,7-diol], the IC50 in the series with SREBP pathway was found to be 0.188 µM. The molecule also gave a half-life at 1 µM in series [1] of 1.8 h. This molecule had a solubility at 1 h in series [2] of 248 µM (≈ 132 µg/mL).
Take `COc1c(F)cccc1C(O)CCC[C@@H](C)[C@H]1CC[C@H]2[C@H]3[C@H](CC[C@]12C)[C@@]1(C)CC[C@H](O)[C@H](O)[C@@H]1CC3(F)F` (stereo partly drawn) [Compound 46, (1R,3aS,3bS,5aR,6R,7S,9aR,9bS,11aR)-4,4-difluoro-1-[(2R)-6-(2-methoxy-3-fluorophenyl)-6-hydroxyhexan-2-yl]-9a,11a-dimethylhexadecahydro-1H-cyclopenta[1,2-a]phenanthrene-6,7-diol]: the IC50 in the series with SREBP pathway is 0.07 µM. Besides, the half-life at 1 µM in series [1] was 2.6 h. The same molecule gave a solubility at 1 h in series [2] of 277 µM (≈ 153 µg/mL).
As for `C[C@H](CCCC(O)c1ccccc1OC(F)(F)F)[C@H]1CC[C@H]2[C@H]3[C@H](CC[C@]12C)[C@@]1(C)CC[C@H](O)[C@H](O)[C@@H]1CC3(F)F` (stereo partly drawn) [Compound 1, (1R,3aS,3bS,5aR,6R,7S,9aR,9bS,11aR)-4,4-difluoro-1-[(2R)-6-hydroxy-6-{2-[(trifluoromethyl)oxy]phenyl}hexan-2-yl]-9a,11a-dimethylhexadecahydro-1H-cyclopenta[1,2-a]phenanthrene-6,7-diol], the IC50 in the series on SREBP pathway was found to be 0.33 µM. In series [1], the half-life at 1 µM is 2.78 h. In series [2], this molecule had a solubility at 1 h of 140 µM (≈ 82.4 µg/mL).
Take `C[C@H](CCCC(O)c1ccccc1OC(F)(F)F)[C@H]1CC[C@H]2[C@H]3[C@H](CC[C@]12C)[C@@]1(C)CC[C@H](O)C(=O)[C@@H]1CC3(F)F` (stereo partly drawn) [Compound 97, (1R,3aS,3bS,5aR,7S,9aR,9bS,11aR)-4,4-difluoro-7-hydroxy-1-[(2R)-6-hydroxy-6-{2-[(trifluoromethyl)oxy]phenyl}hexan-2-yl]-9a,11a-dimethylhexadecahydro-1H-cyclopenta[1,2-a]phenanthren-6-one]: the IC50 in the series on SREBP pathway was 0.0741 µM; in series [3] it was less than 200 nM. The half-life at 1 µM in series [1] is 1.78 h.
For `C[C@H](CCCC(O)c1cccc2c1OC(F)(F)O2)[C@H]1CC[C@H]2[C@H]3[C@H](CC[C@]12C)[C@@]1(C)CC[C@H](O)[C@H](O)[C@@H]1CC3(F)F` (stereo partly drawn) [Compound 77, (1R,3aS,3bS,5aR,6R,7S,9aR,9bS,11aR)-1-[(2R)-6-(2,2-difluorobenzo[d][1,3]dioxol-4-yl)-6-hydroxyhexan-2-yl]-4,4-difluoro-9a,11a-dimethylhexadecahydro-1H-cyclopenta[1,2-a]phenanthrene-6,7-diol], the IC50 in the series on SREBP pathway is 0.17 µM; in series [3], less than 200 nM. For the same molecule, the half-life at 1 µM in series [1] was more than 3.08 h.
Taken in the same sequence, the figures for `COc1cccc(C(O)CCC[C@@H](C)[C@H]2CC[C@H]3C4=C(F)C[C@H]5[C@@H](O)[C@@H](O)CC[C@]5(C)[C@H]4CC[C@]23C)c1F` (stereo partly drawn) [Compound 64, (1R,3aR,5aR,6R,7S,9aR,9bR,11aR)-4-fluoro-1-[(2R)-6-(2-fluoro-3-methoxyphenyl)-6-hydroxyhexan-2-yl]-9a,11a-dimethyl-2,3,3a,5,5a,6,7,8,9,9a,9b,10,11,11a-tetradecahydro-1H-cyclopenta[1,2-a]phenanthrene-6,7-diol] were 0.318 µM, less than 200 nM and 1.16 h.
Taken in the same sequence, the figures for `C[C@H](CCCC(O)c1c(F)cccc1F)[C@H]1CC[C@H]2[C@H]3[C@H](CC[C@]12C)[C@@]1(C)CC[C@H](O)CC1CC3(F)F` (stereo in doubt) [Compound 87, (1R,3aS,3bR,7S,9aS,9bS,11aR)-1-[(2R)-6-(2,6-difluorophenyl)-6-hydroxyhexan-2-yl]-4,4-difluoro-9a,11a-dimethylhexadecahydro-1H-cyclopenta[1,2-a]phenanthren-7-ol] were 0.055 µM, less than 200 nM and 2.26 h.
